Marks after values point to notes of the source that are not given here.
Key:
Format in all cases: cell-based
fertilized mouse eggs [1] = test: PIV analysis of cytoplasmic movements (speed-peaks, after-movements, basal speed) in inhibitor-treated zygotes; conditions: for decrease in basal speed: vs control zygotes; for Mean amplitude of after-movements +/- s.d. / Mean amplitude of speed-peaks +/- s.d.: inhibitor-treated zygotes
Method: (§1) F1 (C57B16×CBA) mouse females were superovulated and oocytes and zygotes recovered as described previously^44. Parthenogenetic activation was performed by incubating eggs for 4 hrs in M2 medium without Ca^2+/Mg^2+ supplemented with 10 mM SrCl2. Germinal vesicle (GV) oocytes were isolated from ovaries to M2 medium supplemented with 150 μg/ml dibutyryl cyclic AMP (dbcAMP). Epididymal sperm was isolated from F1 males and capacitated in 0.5 ml of fertilization medium with 4 mg/ml BSA^45. Embryos were imaged in KSOM medium as described previously^44. In some experiments prior to imaging embryos were pre-incubated for 20 min with 30 μM BAPTA-AM (to chelate Ca^2+), 5 μg/ml nocodazole (to depolimerize microtubules), 2 μg/ml cytochalasin D (to depolimerize F-actin), 10 μM taxol (to stabilize microtubules) or 100 nM jasplakinolide (to stabilize F-actin) and then transferred to pure KSOM (BAPTA-treated embryos) or to KSOM containing the respective drug (rest of the treated embryos). Embryos treated with ML-7 (to inhibit myosin light chain kinase (MLCK) and therefore myosin II activation^46) were pre-incubated with 25 μM ML-7 for 20 mins and then imaged in a dish containing KSOM with 25 μM ML-7 without a mineral oil overlay which would have absorbed ML-7.
(§2) In most experiments zygotes were imaged in a single plane under an inverted confocal microscope (Zeiss LSM 510 Meta) at 37.5° C. and 5% CO2. DIC images were captured every 10 s using a 633 nm HeNe laser. To measure free Ca^2+ ion concentration, embryos were pre-incubated for 20 min in 5 μM FuraRed-AM (Invitrogen) and FuraRed and DIC images were obtained simultaneously with a 488 nm argon laser. In experiments in which correlations between cytoplasmic movements and developmental potential of the embryos were examined zygotes were imaged in a single plane in transmitted light under standard non-confocal microscopes (Zeiss Axiovert or Deltavision) every 10 s for 2.5 hrs. In experiments in which cytoplasmic movements in the cortex and central parts of zygotes were compared embryos were imaged on the Deltavision microscope in 11 planes every 6 μm, every 10 s for 3 hrs. Intensity of FuraRed fluorescence was measured using ImageJ software. Images were analyzed using custom written software in MATLAB (The Mathworks Inc., Natick, Mass., USA) using algorithms adapted from MatPIV v1.6.1^47. The algorithm was based on that used in PIV, a standard analysis technique used extensively in fluid dynamics^21-24 that involves cross-correlating image sub-regions between sequential pairs of images. In the PIV analysis each image was divided into square interrogation regions and the cross-correlation coefficient distribution was calculated within a larger region in the next image in the sequence. The peak of the cross-correlation coefficient distribution gave the most likely location in the second image of the material in the interrogation region in the first image. This was then used to calculate the displacement vector over the time between images (FIG. 1A). As the displacement of the pattern of contrast of an area of pixels is being measured over many pixels it is possible to accurately measure sub-pixel movements with this technique^22, 24, 48.
(§3) DIC images of fertilized eggs were analyzed using custom written software in MATLAB (The Mathworks Inc., Natick, Mass., USA) using algorithms adapted from MatPIV v1.6.150. The algorithm was based on that used in PIV, a standard analysis technique that involves the use of pattern matching techniques based on cross-correlating sub-regions between sequential pairs of images (see Methods in the main text and FIG. 1a). To calculate a displacement for each analysed interrogation region two subsequent PIV iterations were used. First, the displacement was calculated for a larger interrogation area and then it was used as an estimate of where to centre the search area for the next iteration with a smaller interrogation region. […]

fertilized mouse eggs [2] = test: Formation and maintenance of the fertilization cone (FC) in inhibitor-treated zygotes
Method: as §1, §2

[3] = test system: in vivo fertilized mouse eggs; test: Completion of meiosis (2PB extrusion) under Ca2+ chelation and cytoskeleton inhibitors
Method: as §1, §2

mouse zygotes = test: Immunostaining of microtubules and actomyosin in treated zygotes
Method: To examine a correlation between cytoplasmic movements and developmental potential of the embryos, 10 μl of capacitated sperm suspension was added to eggs surrounded by cumulus cells and then gametes were co-incubated for 2 hrs. In experiments testing specificity of inhibitors or involving live imaging of actin and myosin, prior to fertilization eggs were treated shortly with acidic Tyrode's solution (pH=2.5) to remove zonas, then were mixed with approximately 1 μl of capacitated sperm suspension and incubated together for 30 min. In both cases fertilization was performed in fertilization medium supplemented with 4 mg/ml BSA^45. Embryos at 2-cell stage were transfer to oviducts of recipient F1 females mated with vasectomised males on 0.5 dpc. They were dissected on 6.5 dpc or 19.5 dpc.
Embryos were fixed in 4% PFA and permeabilised as described before^41. Embryos were scanned using an inverted confocal microscope (Zeiss LSM 510 Meta).
In more detail, embryos were fixed in 4% PFA (30 min, RT or 4° C. overnight), permeabilised with 0.2-0.5% Triton-X100 (30 min, RT) and blocked with 3% BSA or 10% FCS. Subsequently, they were stained with following antibodies and dyes: […]

mouse eggs [4] = test: Cytoplasmic movements and Ca2+ transients in eggs parthenogenetically activated with SrCl2
Method: as §1
as §2, with “The peak of the cross-correlation coefficient distribution gave the most likely location in the second image of the material in the interrogation region in the first image. This was then used to calculate the displacement vector over the time between images (FIG. 1A).” left out
as §3, with “The algorithm was based on that used in PIV, a standard analysis technique that involves the use of pattern matching techniques based on cross-correlating sub-regions between sequential pairs of images (see Methods in the main text and FIG. 1a).” left out

mouse eggs [5] = test: Cytoplasmic movements in eggs injected with heat-inactivated sperm heads (ICSI) and activated with SrCl2; conditions: for Mean amplitude of after-movements +/- s.d. / Mean amplitude of speed-peaks +/- s.d.: ICSI with the inactivated sperm and SrCl2 activation
Method: as §1, §2
ICSI was carried out as previously described^49 using Leica micromanipulators and Leica inverted microscope. In some experiments heat-inactivated sperm (30 min in 60° C.) was used instead of freshly isolated sperm. The sperm suspension was mixed with M2 medium containing 10% polyvinylpyrrolidone (PVP, Mr=360 kDa). Sperm were delivered into the oocytes' cytosol using a piezo micropipette-driving unit (IntraCel PMAS-CT150, PrimeTech, Japan).

[6] = treated zygotes, control zygotes 9.0 +/- 1.9
[7] = Stage 1 prolonged, activation with SrCl2

SMILES	effect on speed-peaks (fertilized mouse eggs [1])	Mean basal cytoplasmic speed +/- s.d. (fertilized mouse eggs [1]; [6])	Zygotes that failed to extrude 2PB (%) [3]	Zygotes that extruded 2PB (%) [3]	Mean amplitude of after-movements +/- s.d. (fertilized mouse eggs [1]; Stage 1)	Mean amplitude of speed-peaks +/- s.d. (fertilized mouse eggs [1]; Stage 1)	Mean amplitude of after-movements +/- s.d. (fertilized mouse eggs [1]; Stage 2)	Mean amplitude of speed-peaks +/- s.d. (fertilized mouse eggs [1]; Stage 2)	Mean amplitude of after-movements +/- s.d. (fertilized mouse eggs [1]; Stage 3)	Mean amplitude of speed-peaks +/- s.d. (fertilized mouse eggs [1]; Stage 3)	effect on formation and/or maintenance of the FCs (fertilized mouse eggs [2])	also measured
C=C1[C@@H](C)[C@H]2[C@H](Cc3ccccc3)NC(=O)[C@]23[C@H](OC(C)=O)/C=C/[C@@](C)(O)C(=O)[C@@H](C)C/C=C/[C@H]3[C@@H]1O [Cytochalasin D, cytochalasin D]	dramatically abolished speed-peaks	3.1 +/− 0.6* nm/s	(100) %									zygotes in which unfocused, low-amplitude speed-peaks were recorded (fertilized mouse eggs [1]; 2 out of 21 analyzed zygotes): 9.5%; decrease in basal speed (fertilized mouse eggs [1]): ~3 fold; zygotes in which FCs did not form (fertilized mouse eggs [2]; 20/21 zygotes): 95%
CC(=O)OCOC(=O)CN(CC(=O)OCOC(C)=O)c1ccccc1OCCOc1ccccc1N(CC(=O)OCOC(C)=O)CC(=O)OCOC(C)=O [BAPTA, BAPTA-AM]	suppressed high amplitude speed-peaks	15.3 +/− 3.3* nm/s	(33.3) %	(66.7) %								elevation of mean basal cytoplasmic speed (fertilized mouse eggs [1]; more than controls, 21 fertilized eggs): 1.7 fold; effect on cytoskeleton by staining (mouse zygotes): disrupted microtubules
C/C1=C\[C@H](C)C[C@H](C)OC(=O)C[C@H](c2ccc(O)cc2)NC(=O)[C@@H](Cc2c(Br)[nH]c3ccccc23)N(C)C(=O)[C@H](C)NC(=O)[C@@H](C)C1 [Jasplakinolide, jasplakinolide]	amplitudes were significantly lower than in controls	3.0 +/− 0.4* nm/s	(100) %		5.2 ± 2.1 nm/s	20.9 ± 10.1 nm/s	4.2 +/− 1.9^|| nm/s	14.5 +/− 8.3^|| nm/s	3.8 +/− 2.8^|| nm/s	10.8 ± 7.6 nm/s	still permitted formation and/or maintenance of FCs	decrease in basal speed (fertilized mouse eggs [1]): ~3 fold; effect on cytoskeleton by staining (mouse zygotes): formation of a thicker cortical layer of actin
COC(=O)Nc1nc2ccc(C(=O)c3cccs3)cc2[nH]1 [Nocodazole, nocodazole]	neither nocodazole-induced depolymerisation nor taxol-induced stabilisation of microtubules inhibited speed-peaks	11.0 +/− 1.5* nm/s	(58.3) %	(41.7) %	11.1 ± 3.9 nm/s	20.6 ± 11.2 nm/s	16.6 +/− 6.8^¶ nm/s	35.2 +/− 19.3^§ nm/s	21.5 +/− 6.7^|| nm/s	10.4 ± 8.5 nm/s	had no effect upon either formation and/or maintenance of the FCs	
O=S(=O)(c1cccc2c(I)cccc12)N1CCCNCC1 [ML-7]			(30.8) %	(69.2) %								zygotes in which cytoplasmic speed oscillations were blocked (fertilized mouse eggs [1]; 16/17 zygotes): 94.1%; Mean basal cytoplasmic speed +/- s.d. (fertilized mouse eggs [1]; A - mean basal velocity before M-phase/interphase transition): A. 5.1 +/− 1.3*^,‡ nm/s; Mean basal cytoplasmic speed +/- s.d. (fertilized mouse eggs [1]; B - mean basal velocity after M-phase/interphase transition): B. 8.3 +/− 1.1^†,‡ nm/s; embryos in which FCs were present (fertilized mouse eggs [2]; 10/17 embryos): 58.8%
[Cl-].[Cl-].[Sr+2] [SrCl2]												delay of speed peaks with respect to the onset of the Ca2+ transient (mouse eggs [4]): 10 to 30 s; Ca2+ transients accompanied by speed peaks (mouse eggs [4]; 133/444 transients, n=47 eggs): 30%; Ca2+ transients with after-movements present (mouse eggs [4]; 341/444 transients): 76.8%; Mean amplitude of after-movements +/- s.d. (mouse eggs [4]; [7]): 7.7 +/− 2.9^#,** nm/s; Mean amplitude of speed-peaks +/- s.d. (mouse eggs [4]; [7]): 7.4 +/− 4.0^#,||,¶ nm/s; lag of speed-peaks and FC pulsations after peaks of Ca2+ transients (mouse eggs [5]): 10 to 30 s; Ca2+ transients accompanied by speed-peaks (mouse eggs [5]; 48/79 transients, Stage 2, FCs present, n=25): 60.8%; Mean amplitude of after-movements +/- s.d. (mouse eggs [5]; Stage 1): 7.9 ± 3.0 nm/s; Mean amplitude of speed-peaks +/- s.d. (mouse eggs [5]; Stage 1): 8.8 +/− 8.8^|| nm/s; Mean amplitude of after-movements +/- s.d. (mouse eggs [5]; Stage 2): 10.1 +/− 3.5^#,‡‡ nm/s; Mean amplitude of speed-peaks +/- s.d. (mouse eggs [5]; Stage 2): 8.6 +/− 5.4^# nm/s; Mean amplitude of after-movements +/- s.d. (mouse eggs [5]; Stage 3): 13.0 ± 7.0 nm/s; Mean amplitude of speed-peaks +/- s.d. (mouse eggs [5]; Stage 3): 7.1 +/− 4.3^# nm/s
CC(=O)O[C@H]1C(=O)[C@@]2(C)[C@H]([C@H](OC(=O)c3ccccc3)[C@]3(O)C[C@H](OC(=O)[C@H](O)[C@@H](NC(=O)c4ccccc4)c4ccccc4)C(C)=C1C3(C)C)[C@]1(OC(C)=O)CO[C@@H]1C[C@@H]2O [Taxol, taxol]	neither nocodazole-induced depolymerisation nor taxol-induced stabilisation of microtubules inhibited speed-peaks	7.7 +/− 1.7^§ nm/s	(100) %		7.9 ± 4.3 nm/s	18.0 +/− 5.0^¶ nm/s	11.1 ± 5.3 nm/s	29.9 +/− 21.0^¶ nm/s	14.3 +/− 5.8^¶ nm/s	11.5 ± 6.5 nm/s	had no effect upon either formation and/or maintenance of the FCs	

— patent US9410939B2, “Methods for predicting mammalian embryo viability” (Cambridge Enterprise Limited, priority 2011, dated 2016)
